{
  "source": "patent US20260085293A1",
  "about": "“SOLUTION AND METHOD FOR TRANSPORTING OR STORING BODY FLUID SAMPLE” (PROVIGATE INC., priority 2023, published 2026)",
  "system": "glycoalbumin",
  "assay": "Relative GA value of diluted pool serum with active ingredient after 2 days at 37° C., assayed by HPLC",
  "design": "species or system human",
  "description": "Examples will now be described. Blood samples were diluted with diluents containing active ingredients according to the embodiments of the present disclosure, and the GA values thereof were assayed by HPLC on the same day and after two days.\nFirst, a solution containing 10 mM of HEPES and 150 mM of NaCl was prepared. The pH was 8.0. Into this solution, an active ingredient was mixed to prepare a diluent.\nIn Examples 1 to 4, pool serum was used as the blood samples. The pool serum was prepared by isolating serum from venous blood taken from multiple healthy subjects and then mixing. The resulting product was mixed with the diluent described above. Into 90 μL of the diluent, 10 μL of the blood serum was introduced to prepare a 10-fold dilution (10×) assay sample.\nThe sample was assayed on the same day (“day 0”) or was stored in a 37° C. constant temperature reservoir for two days (“day 2”) and then assayed.\nFor the assay conditions, “GA detection by HPLC method” J Chromatogr 597, 271-275 (1992) was referred. Columns used were AEX:Shodex-Asahipak ES-502N (7.5 mm ID ×100 mm) (Showa Denko K.K.) and BAC:TSKgel Boronate-5PW (4.6 mm ID×100 mm) (TOSOH CORPORATION). The eluents used were glycine (JIS special grade), magnesium chloride hexahydrate (JIS special grade), D(−)-sorbitol (Wako 1st grade), ethanol (99.5%, JIS special grade), tris(hydroxymethyl)aminomethane (Tris, Biotechnology grade), and EDTA-2Na. For the analysis, Prominence HPLC system (Shimadzu Corporation) equipped with a system controller was used.\nIn the graphs indicated in FIGS. 2 to 5, the vertical axis indicates the ratio (relative GA value) of the GA value assayed two days (day 2) after the preparation to the GA value measured on the same day (day 0) as the preparation. When assay was carried out multiple times, the average value is indicated.\nEach of the additives was dissolved in the diluent to a predetermined concentration (0.1% to 0.5%) in w/v. For example, specifically, 570 μL of the diluent containing each additive was added to 30 μL of pool serum to prepare a 20× diluted liquid. The GA% of the day 0 sample and that of the day 2 sample left to stand still for 2 days in a 37° C. constant temperature reservoir were assayed by using HPLC.",
  "key": {"[1]": {"details": "0.1 w/v% active ingredient in diluent"}, "[2]": {"details": "0.2 w/v% active ingredient in diluent"}},
  "data": [
    {"compound": "OC[C@H]1O[C@H](O[C@H]2[C@H](O)[C@@H](O)[C@@H](O[C@H]3[C@H](O)[C@@H](O)C(O)O[C@@H]3CO)O[C@@H]2CO)[C@H](O)[C@@H](O)[C@@H]1O", "note": "(mixture of isomers) [MT, maltotriose]", "values": [
      {"measurement": "relative GA value (day 2 / day 0)", "setting": "[1]", "result": "about 98.2"},
      {"measurement": "relative GA value (day 2 / day 0)", "setting": "[2]", "result": "about 99.8"},
      {"measurement": "relative GA value (day 2 / day 0), in words", "setting": "0.5 w/v% active ingredient in diluent, not illustrated", "result": "excessively large"}
    ]},
    {"compound": "CN[C@@H]1[C@@H](O)[C@@H](O[C@@H]2[C@@H](O)[C@H](O[C@H]3O[C@H]([C@@H](C)O)[C@@H](O)[C@H](O)[C@H]3N)[C@@H](N)C[C@H]2N)OC[C@]1(C)O", "note": "[G418, reference compound]", "values": [
      {"measurement": "relative GA value (day 2 / day 0)", "setting": "[1]", "result": "about 98.2"},
      {"measurement": "relative GA value (day 2 / day 0)", "setting": "[2]", "result": "about 98.2"}
    ]},
    {"compound": "CC(=O)N[C@H]1C(O)O[C@H](CO)[C@@H](O)[C@@H]1O[C@H](C)C(=O)O", "note": "(stereo partly drawn) [NAM, N-acetylmuramic acid]", "values": [
      {"measurement": "relative GA value (day 2 / day 0)", "setting": "[1]", "result": "about 98.5"},
      {"measurement": "relative GA value (day 2 / day 0)", "setting": "[2]", "result": "about 99.0"}
    ]},
    {"compound": "[H]/N=C(/N)N[C@H]1[C@H](O)[C@@H](O)[C@H](O[C@@H]2O[C@@H](C)[C@](O)(C=O)[C@H]2O[C@@H]2O[C@@H](CO)[C@H](O)[C@@H](O)[C@@H]2NC)[C@@H](N/C(N)=N\\[H])[C@@H]1O", "note": "[STR, streptomycin, reference compound]", "values": [
      {"measurement": "relative GA value (day 2 / day 0)", "setting": "[1]", "result": "about 100%"},
      {"measurement": "relative GA value (day 2 / day 0)", "setting": "[2]", "result": "about 102%"}
    ]}
  ]
}
